The values that follow are results of earlier work, collected in EP1911850A1, “Method of producing 6-thio-sialylated glycoproteins and glycoconjugates” (CENTRE NATIONAL DE LA RECHERCHE SCIENTIFIQUE (CNRS), priority 2006, dated 2008).

This series relates to a galactosidase. The conditions noted are these: background statement; comparator not stated.

For `CC(=O)N[C@H]1C(O)O[C@H](CO)[C@@H](O[C@@H]2S[C@H](CO)[C@H](O)[C@H](O)[C@H]2O)[C@@H]1O` (stereo partly shown) [5'-Thio-N-acetyllactosamine], the “increased stability to digestion by a galactosidase” value is 200 fold.
